Data as given in patent US9296759B2, “Amino-oxazine and amino-dihydrothiazine compounds as beta-secretase modulators and methods of use” (AMGEN INC., priority 2011, dated 2016).

Assays:
[1] = test system: Aβ40 in conditioned medium of cells stably expressing Amyloid Precursor Protein (APP); assay: In vitro BACE cell-based assay (HEK cell assay, Aβ40 sandwich ELISA); settings: average IC50, Aβ40, 24 h incubation
Method: In Vitro BACE Cell-Based Assay
The cell-based assay measures inhibition or reduction of Aβ40 in conditioned medium of test compound treated cells expressing amyloid precursor protein.
Cells stably expressing Amyloid Precursor Protein (APP) were plated at a density of 40K cells/well in 96 well plates (Costar). The cells were cultivated for 24 hours at 37° C. and 5% CO2 in DMEM supplemented with 10% FBS. The test compounds were then added to cells in 10-point dose response concentrations with the starting concentration being either 100 μM or 10 μM. The compounds were diluted from stock solutions in DMSO and the final DMSO concentration of the test compounds on cells was 0.1%. After 24 h of incubation with the test compounds the supernatant conditioned media was collected and the Aβ 40 levels were determined using a sandwich ELISA. The IC50 of the compound was calculated from the percent of control or percent inhibition of Aβ 40 as a function of the concentration of the test compound.
The sandwich ELISA to detect Aβ 40 was performed in 96 well microtiter plates, which were pre-treated with goat anti-rabbit IgG (Pierce). The capture and detecting antibody pair that were used to detect Aβ 40 from cell supernatants were affinity purified pAb40 (Biosource) and biotinylated 6E10 (Signet Labs Inc.), respectively. The optimal concentration for the pAb40 antibody was 3 μg/ml in Superblock/TBS (Pierce) that was supplemented with 0.05% Tween 20 (Sigma).
Cellular supernatants were incubated with the capture antibody for 3 h at 4° C., followed by 3 wash steps in TBS-tween (0.05%). The detecting antibody incubation was for 2 h at 4° C., again followed by the wash steps as described previously. The final readout of the ELISA is Time-Resolved Fluorescence (counts per minute) using Delfia reagents Streptavidin-Europium and Enhancement solutions (Perkin Elmer) and the Victor 2 multilabel counter (Perkin Elmer).

[2] = biological target: Cathepsin D (Homo sapiens (Human), UniProt P07339); assay: In vitro enzymatic Cat D (Cathepsin D) FRET assay; type: biochemical; settings: average IC50
Chain of Cathepsin D (P07339 65-412, species assumed): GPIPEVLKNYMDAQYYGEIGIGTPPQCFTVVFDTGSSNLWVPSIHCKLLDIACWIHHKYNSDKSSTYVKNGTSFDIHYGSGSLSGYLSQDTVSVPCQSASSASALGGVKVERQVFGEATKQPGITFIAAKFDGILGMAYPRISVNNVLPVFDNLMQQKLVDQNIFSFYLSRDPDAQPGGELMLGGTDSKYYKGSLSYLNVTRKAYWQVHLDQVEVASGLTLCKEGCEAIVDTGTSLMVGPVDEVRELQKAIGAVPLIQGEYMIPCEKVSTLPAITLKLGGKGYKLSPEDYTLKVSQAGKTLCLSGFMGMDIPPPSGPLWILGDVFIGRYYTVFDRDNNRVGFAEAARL
Method: In Vitro Enzymatic Cat D (Cathepsin D) FRET (Fluorescence Resonance Energy Transfer) Assay
Recombinant CathepsinD was expressed in CHO cells. The assay buffer for CathepsinD is 0.05 M citrate pH 3.5, 10% DMSO final, 5 mM CHAPS. […] The assays are effectively started by the addition of different FRET substrates (20 nM for CathepsinD) and the combination is incubated for one hour. The FRET assay is terminated with by addition of Tris buffer, which raises the pH to neutrality, and the fluorescence is determined. The FRET substrate is a peptide with commercially available fluorophore and quencher, on opposite sides of the BACE cleavage site. […] Proteolytic cleavage of the FRET substrate releases quenching of fluorescence (CathepsinD excitation 500 nm and emission 580 nm).

[3] = biological target: BACE 1 (beta secretase enzyme) (Homo sapiens (Human), UniProt P56817); assay: In vitro enzymatic BACE FRET assay; type: biochemical; settings: average IC50
Chain of BACE 1 (beta secretase enzyme) (P56817 46-501): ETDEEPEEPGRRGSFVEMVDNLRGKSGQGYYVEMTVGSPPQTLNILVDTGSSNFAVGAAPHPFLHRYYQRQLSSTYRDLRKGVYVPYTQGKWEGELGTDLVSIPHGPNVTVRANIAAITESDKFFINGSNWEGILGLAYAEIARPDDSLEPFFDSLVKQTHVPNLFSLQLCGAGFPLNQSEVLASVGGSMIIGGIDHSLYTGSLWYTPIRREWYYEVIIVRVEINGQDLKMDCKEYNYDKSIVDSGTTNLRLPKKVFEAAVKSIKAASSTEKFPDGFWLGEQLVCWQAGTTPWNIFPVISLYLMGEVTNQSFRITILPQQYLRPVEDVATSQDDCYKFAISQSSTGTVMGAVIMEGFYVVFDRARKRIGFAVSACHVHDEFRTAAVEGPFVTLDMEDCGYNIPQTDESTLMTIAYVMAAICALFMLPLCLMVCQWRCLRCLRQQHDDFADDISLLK
Method: In Vitro Enzymatic BACE FRET (Fluorescence Resonance Energy Transfer) Assay
The assay buffer used in this screen is 0.05 M acetate, pH 4.2, 10% DMSO final, 100 uM genapol (which is a nonionic detergent, below its Critical Micelle Concentration). […] This assay is effectively started by the addition of FRET substrate (50 nM) and the combination is incubated for one hour. The FRET assay is terminated with by addition of Tris buffer, which raises the pH to neutrality, and the fluorescence is determined. The FRET substrate is a peptide with commercially available fluorophore and quencher, on opposite sides of the BACE cleavage site. Proteolytic cleavage of the FRET substrate releases quenching of fluorescence (excitation […] and […]).

Compound	IC50 [1] [nM]	IC50 [2] [nM]	IC50 [3] [nM]	IC50 ([1]; Homo sapiens, HEK293) [nM]
CCOc1cccnc1Nc1ccc2c(c1)[C@@]1(CCOC(N)=N1)c1cc(OC)cc(F)c1O2 [Example 31, (4S)-N~2~′-(3-ethoxy-2-pyridinyl)-5′-fluoro-7′-methoxy-5,6-dihydrospiro[1,3-oxazine-4,9′-xanthene]-2,2′-diamine]	64.2	400000	69.6	
NC1=N[C@@]2(CCO1)c1cc(NC(=O)c3ccc(Cl)cn3)ccc1Oc1c2cc(Cl)nc1F [Example 38, N-((5S)-2′-amino-3-chloro-1-fluoro-5′,6′-dihydrospiro[chromeno[2,3-c]pyridine-5,4′-[1,3]oxazin]-7-yl)-5-chloro-2-pyridinecarboxamide]		> 400000		31
Cc1cccnc1Nc1ccc2c(c1)[C@@]1(CCOC(N)=N1)c1cc(Cl)nc(F)c1O2 [Example 41, (5S)-3-chloro-1-fluoro-N~7~-(3-methyl-2-pyridinyl)-5′,6′-dihydrospiro[chromeno[2,3-c]pyridine-5,4′-[1,3]oxazine]-2′,7-diamine]		386000		279
COc1cc(F)c2c(c1)[C@]1(CCOC(N)=N1)c1cc(NC(=O)c3ccc(Cl)cn3)ccc1O2 [Example 42, N-((4S)-2-amino-5′-fluoro-7′-methoxy-5,6-dihydrospiro[1,3-oxazine-4,9′-xanthen]-2′-yl)-5-chloro-2-pyridinecarboxamide]		> 400000		20.5
COc1cnc(C(=O)Nc2ccc3c(c2)[C@@]2(CCOC(N)=N2)c2cc(Cl)nc(F)c2O3)cn1 [Example 47, N-((5S)-2′-amino-3-chloro-1-fluoro-5′,6′-dihydrospiro[chromeno[2,3-c]pyridine-5,4′-[1,3]oxazin]-7-yl)-5-methoxy-2-pyrazinecarboxamide]		335000		
CC#CCOc1cnc(C(=O)Nc2ccc3c(c2)[C@@]2(CCOC(N)=N2)c2cc(Cl)nc(F)c2O3)cn1 [Example 48, N-((5S)-2′-amino-3-chloro-1-fluoro-5′,6′-dihydrospiro[chromeno[2,3-c]pyridine-5,4′-[1,3]oxazin]-7-yl)-5-(2-butyn-1-yloxy)-2-pyrazinecarboxamide]		151000		0.3
N#Cc1ccc(C(=O)Nc2ccc3c(c2)[C@@]2(CCOC(N)=N2)c2cc(C4=CCOCC4)nc(F)c2O3)nc1 [Example 64, N-((5S)-2′-amino-3-(3,6-dihydro-2H-pyran-4-yl)-1-fluoro-5′,6′-dihydrospiro[chromeno[2,3-c]pyridine-5,4′-[1,3]oxazin]-7-yl)-5-cyano-2-pyridinecarboxamide]			0.74	0.039
NC1=N[C@@]2(CCO1)c1cc(NC(=O)c3ccc(Cl)cn3)ccc1Oc1ncc(-c3ccnc(F)c3)cc12 [Example 90, N-((5S)-2′-amino-3-(2-fluoro-4-pyridinyl)-5′,6′-dihydrospiro[chromeno[2,3-b]pyridine-5,4′-[1,3]oxazin]-7-yl)-5-chloro-2-pyridinecarboxamide]		401000		0.7
NC1=N[C@@]2(CCO1)c1cc(NC(=O)c3ccc(Cl)cn3)ccc1Oc1c2cc(-c2ccnc(F)c2)nc1F [Example 91, N-((5S)-2′-amino-1-fluoro-3-(2-fluoro-4-pyridinyl)-5′,6′-dihydrospiro[chromeno[2,3-c]pyridine-5,4′-[1,3]oxazin]-7-yl)-5-chloro-2-pyridinecarboxamide]		400000		0.4
COc1nc(C2=CCOCC2)cc2c1Oc1ccc(NC(=O)c3ccc(F)cn3)cc1[C@@]21CCOC(N)=N1 [Example 96, N-((5S)-2′-amino-3-(3,6-dihydro-2H-pyran-4-yl)-1-methoxy-5′,6′-dihydrospiro[chromeno[2,3-c]pyridine-5,4′-[1,3]oxazin]-7-yl)-5-fluoro-2-pyridinecarboxamide]				8.8
N#Cc1ccc(C(=O)Nc2ccc3c(c2)[C@@]2(CCOC(N)=N2)c2cc(-c4ccnc(F)c4)cc(F)c2O3)nc1 [Example 108, N-((4S)-2-amino-5′-fluoro-7′-(2-fluoro-4-pyridinyl)-5,6-dihydrospiro[1,3-oxazine-4,9′-xanthen]-2′-yl)-5-cyano-2-pyridinecarboxamide]		400000		0.5
COc1cnc(C(=O)Nc2ccc3c(c2)[C@@]2(CCSC(N)=N2)c2cc(-c4cncc(F)c4)nc(F)c2O3)cn1 [Example 112, N-((5S)-2′-amino-1-fluoro-3-(5-fluoro-3-pyridinyl)-5′,6′-dihydrospiro[chromeno[2,3-c]pyridine-5,4′-[1,3]thiazin]-7-yl)-5-methoxy-2-pyrazinecarboxamide]			2.8	1.2

Other lines, results leading:

IC50 [1] [nM]	IC50 [2] [nM]	IC50 [3] [nM]	IC50 ([1]; Homo sapiens, HEK293) [nM]	Compound
	350000		31.8	COc1cc(F)c2c(c1)[C@]1(CCSC(N)=N1)c1cc(NC(=O)c3ccc(Cl)cn3)ccc1O2 [Example 32, N-((4S)-2-amino-5′-fluoro-7′-methoxy-5,6-dihydrospiro[1,3-thiazine-4,9′-xanthen]-2′-yl)-5-chloro-2-pyridinecarboxamide]
	379000		7.8	COc1cnc(C(=O)Nc2ccc3c(c2)[C@@]2(CCOC(N)=N2)c2cc(C4CCOCC4)cc(F)c2O3)cn1 [Example 61, N-((4S)-2-amino-5′-fluoro-7′-(tetrahydro-2H-pyran-4-yl)-5,6-dihydrospiro[1,3-oxazine-4,9′-xanthen]-2′-yl)-5-methoxy-2-pyrazinecarboxamide]
	400000		27	COc1cc(F)c2c(c1)[C@]1(CCOC(N)=N1)c1cc(NC(=O)c3cnc(OC)cn3)ccc1O2 [Example 75, N-((4S)-2-amino-5′-fluoro-7′-methoxy-5,6-dihydrospiro[1,3-oxazine-4,9′-xanthen]-2′-yl)-5-methoxy-2-pyrazinecarboxamide]
	331000		181	COc1ccc(C(=O)Nc2ccc3c(c2)[C@@]2(CCOC(N)=N2)c2cc(OC)cc(F)c2O3)c(F)c1 [Example 77, N-((4S)-2-amino-5′-fluoro-7′-methoxy-5,6-dihydrospiro[1,3-oxazine-4,9′-xanthen]-2′-yl)-2-fluoro-4-methoxybenzamide]
		0.9	0.08	Cc1nc(C(=O)Nc2ccc3c(c2)[C@@]2(CCOC(N)=N2)c2cc(C4=CCCOC4)nc(F)c2O3)cs1 [Example 85, N-((5S)-2′-amino-3-(5,6-dihydro-2H-pyran-3-yl)-1-fluoro-5′,6′-dihydrospiro[chromeno[2,3-c]pyridine-5,4′-[1,3]oxazin]-7-yl)-2-methyl-1,3-thiazole-4-carboxamide]
	400000			COc1ccc(C(=O)Nc2ccc3c(c2)[C@@]2(CCOC(N)=N2)c2cc(-c4ccnc(F)c4)nc(F)c2O3)nc1 [Example 98, N-((5S)-2′-amino-1-fluoro-3-(2-fluoro-4-pyridinyl)-5′,6′-dihydrospiro[chromeno[2,3-c]pyridine-5,4′-[1,3]oxazin]-7-yl)-5-methoxy-2-pyridinecarboxamide]
		0.8	0.4	Cc1nc(C(=O)Nc2ccc3c(c2)[C@@]2(CCOC(N)=N2)c2cc(-c4ccnc(F)c4)nc(F)c2O3)cs1 [Example 99, N-((5S)-2′-amino-1-fluoro-3-(2-fluoro-4-pyridinyl)-5′,6′-dihydrospiro[chromeno[2,3-c]pyridine-5,4′-[1,3]oxazin]-7-yl)-2-methyl-1,3-thiazole-4-carboxamide]
			5.7	NC1=N[C@@]2(CCO1)c1cc(NC(=O)c3ccc(F)cn3)ccc1Oc1c(F)cc(-c3ccnc(F)c3)cc12 [Example 102, N-((4S)-2-amino-5′-fluoro-7′-(2-fluoro-4-pyridinyl)-5,6-dihydrospiro[1,3-oxazine-4,9′-xanthen]-2′-yl)-5-fluoro-2-pyridinecarboxamide]
